Assay results as given in PMC8592027, “Structure-Guided Design of D-Galactal Derivatives with High Affinity and Selectivity for the Galectin-8 N-Terminal Domain” (ACS Medicinal Chemistry Letters, 2021).
Entries after “also recorded” stand apart in the source; their conditions may differ.

Tests used:
[1] = biological target: T1, galectin-4C (C-terminal domain) (Homo sapiens, UniProt P56470); assay: Competitive fluorescence polarization assay, galectin-4C; assay type: binding; conditions: mean ± SEM of n = 4–8
T1 construct: galectins (N = N-terminal domain, C = C-terminal domain); made in house
T1 sequence (P56470 194-323 limits assumed): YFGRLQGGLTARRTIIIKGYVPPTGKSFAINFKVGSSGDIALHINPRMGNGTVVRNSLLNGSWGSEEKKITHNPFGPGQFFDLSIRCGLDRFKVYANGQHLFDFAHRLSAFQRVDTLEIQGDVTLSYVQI
Protocol: (§1) 1. Competitive fluorescence polarization experiments:
(§2) Human galectins -1, -3, -4N, -4C, -7, -8N, -9N, and -9C were expressed and purified as previously described 30,41. Fluorescence polarisation experiments were performed using the PHERAstar FS plat e reader (software version 2.10 R3), and the fluorescence anisotropy of fluorescein tagged probes was measured by excitation at 485 nm and emission at 520 nm. The specific conditions for galectins -1, -3, -4N, -4C, -7, -8N, -9N, and -9C were kept as report ed30,41,42. The synthesised compounds were dissolved in pure DMSO at 20 mM concentration and diluted in PBS to 3-6 different concentrations, and each concentration was tested in duplicate. The highest inhibitor concentrations tested were 1.5 mM. The

[2] = test system: MDA-MB-231 cancer cell line; assay: MTS metabolic activity (cytotoxicity) assay, MDA-MB-231; assay type: cell-based, human; conditions: concentrations 1 to 100 μM, 24 hours
Protocol: (§3) We have investigated the cytotoxicity of the compounds 1, 6a, and 6c via a (3-(4,5-dimethylthiazol-2-yl)-5-(3-carboxymethoxyphenyl)-2-(4-sulfophenyl)-2H-tetrazolium) (MTS) assay in K562 and MDA-MB-231 cancer cell lines to establish the direct antitumor activity of compounds, as well as human peripheral blood mononuclear cells (PBMCs), to evaluate their safety.
(§4) Metabolic activity assay:
(§5) The metabolic activities of the cell lines were determined using the CellTiter 96 Aqueous One Solution cell proliferation assay (MTS Reagents, Promega, Madison, WI, USA), according to the manufacturer instructions. Briefly, the cells were treated with the selected compounds in 0.1% dimethyl sulfoxide (DMSO; vehicle), 0.1% DMSO (control vehicle), or medium (control) and seeded at a cell density of 5,500 cells/well (MDA-MB-231 cells) or 4 x 10^4 cells/well (K562 cells), 7000 cells/well (HepG2 cells) or 1 x 10^5 cells/well (human PBMCs) in duplicates (MDA-MB-231, K562, and […]) or triplicates for HepG2 cells (100 µL), in sterile 96-well plates. For the MDA-MB-231 and HepG2, the cells were left to adhere overnight before adding the compounds. The plates were then incubated for 24 hours (48 hours for HepG2), after which 15 µL of MTS reagent was added to each well. After 30-90 minute of incubation, the absorbance was measured at 492 nm using a microplate reader (Synergy HTX Multi-Mode; BioTek Instruments, Inc., VT, USA). […]
(§6) Bead Array Human inflammatory cytokine Kit (content: IL-1, IL-6, IL-8, IL-10, IL-12p). The flow cytometric analyses were performed on an Attune NxT flow cytometer (Thermo Fisher Scientific, […]
(§7) Data are represented as means ± standard deviation (SD) from three representative independent experiments.
(§8) All experiments were performed at least twice, with average values expressed as means ± SD. All data were analyzed with the statistical software GraphPad Prism 8.0 (GraphPad Software, Inc., CA, USA). by one-way ANOVA followed with Dunnett’s multiple compar ison test. Differences were considered non-significant for p > 0.05, and significant (*) for p < 0.05. […]

[3] = biological target: T2, galectin-8N (galectin-8 N-terminal domain) (Homo sapiens, UniProt O00214); assay: Competitive fluorescence polarization assay, galectin-8N; assay type: binding
T2 construct: selective ligand for the galectin-8 N-terminal domain (galectin-8N); made in house
T2 sequence (O00214 19-152 limits assumed): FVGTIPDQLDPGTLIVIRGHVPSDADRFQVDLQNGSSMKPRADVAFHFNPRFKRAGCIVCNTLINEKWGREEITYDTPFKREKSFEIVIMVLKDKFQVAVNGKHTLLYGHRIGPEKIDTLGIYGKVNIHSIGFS
Protocol: All synthesized D-galactal derivatives had higher binding affinities for galectin-8N than D-galactal 3.
as §1, §2

galectin-2 = biological target: T3, galectin-2 (Homo sapiens, UniProt P05162); assay: Competitive fluorescence polarization assay, galectin-2; assay type: binding; conditions: mean ± SEM of n = 4–8
T3 sequence (P05162 1-132): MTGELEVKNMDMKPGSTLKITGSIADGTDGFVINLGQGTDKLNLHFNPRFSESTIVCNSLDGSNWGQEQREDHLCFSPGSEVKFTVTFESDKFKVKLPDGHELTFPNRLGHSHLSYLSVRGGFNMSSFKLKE

galectin-7 = biological target: T4, galectin-7 (Homo sapiens, UniProt P47929); assay: Competitive fluorescence polarization assay, galectin-7; assay type: binding; conditions: mean ± SEM of n = 4–8
T4 construct: made in house
Protocol: as §1, §2

[4] = biological target: T5, galectin-9N (N-terminal domain) (Homo sapiens, UniProt O00182); assay: Competitive fluorescence polarization assay, galectin-9N; assay type: binding; conditions: mean ± SEM of n = 4–8
T5 construct: galectins (N = N-terminal domain, C = C-terminal domain); made in house
Protocol: as §1, §2

[5] = test system: human peripheral blood mononuclear cells (PBMCs); assay: MTS metabolic activity (cytotoxicity) assay, PBMCs; assay type: cell-based; conditions: concentrations up to 100 μM, 24 hours
Protocol: as §3, §4, §5, §6, §7, §8

K562 cancer cell line = assay: MTS metabolic activity (cytotoxicity) assay, K562; assay type: cell-based; conditions: concentrations 1 to 100 μM, 24 hours
Protocol: as §3, §4, §5, §6, §7, §8

[6] = biological target: T6, galectin-4N (N-terminal domain) (Homo sapiens, UniProt P56470); assay: Competitive fluorescence polarization assay, galectin-4N; assay type: binding; conditions: mean ± SEM of n = 4–8
T6 construct: galectins (N = N-terminal domain, C = C-terminal domain); made in house
T6 sequence (P56470 19-150 limits assumed): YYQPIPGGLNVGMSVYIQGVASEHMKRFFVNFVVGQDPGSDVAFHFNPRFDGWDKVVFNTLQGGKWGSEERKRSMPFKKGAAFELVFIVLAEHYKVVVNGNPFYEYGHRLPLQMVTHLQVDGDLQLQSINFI
Protocol: as §1, §2

[7] = biological target: T7, galectin-8C (C-terminal domain) (Homo sapiens, UniProt O00214); assay: Competitive fluorescence polarization assay, galectin-8C; assay type: binding; conditions: mean ± SEM of n = 4–8
T7 construct: galectins (N = N-terminal domain, C = C-terminal domain)
T7 sequence (O00214 187-317 limits assumed): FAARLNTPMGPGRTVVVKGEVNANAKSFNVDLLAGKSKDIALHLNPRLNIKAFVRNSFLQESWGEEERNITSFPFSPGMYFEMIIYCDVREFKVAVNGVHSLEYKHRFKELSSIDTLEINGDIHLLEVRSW

[8] = biological target: T8, galectin-9C (C-terminal domain) (Homo sapiens, UniProt O00182); assay: Competitive fluorescence polarization assay, galectin-9C; assay type: binding; conditions: mean ± SEM of n = 4–8
T8 construct: galectins (N = N-terminal domain, C = C-terminal domain); made in house
Protocol: as §1, §2

galectin-3 = biological target: T9, galectin-3 (Homo sapiens, UniProt P17931); assay: Competitive fluorescence polarization assay, galectin-3; assay type: binding; conditions: mean ± SEM of n = 4–8
T9 construct: made in house
Protocol: as §1, §2

T5 sequence (O00182 17-148 limits assumed): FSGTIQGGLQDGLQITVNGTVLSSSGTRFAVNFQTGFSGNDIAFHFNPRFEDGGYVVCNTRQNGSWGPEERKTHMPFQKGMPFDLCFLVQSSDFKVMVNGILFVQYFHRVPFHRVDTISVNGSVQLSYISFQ
T9 sequence (P17931 whole entry): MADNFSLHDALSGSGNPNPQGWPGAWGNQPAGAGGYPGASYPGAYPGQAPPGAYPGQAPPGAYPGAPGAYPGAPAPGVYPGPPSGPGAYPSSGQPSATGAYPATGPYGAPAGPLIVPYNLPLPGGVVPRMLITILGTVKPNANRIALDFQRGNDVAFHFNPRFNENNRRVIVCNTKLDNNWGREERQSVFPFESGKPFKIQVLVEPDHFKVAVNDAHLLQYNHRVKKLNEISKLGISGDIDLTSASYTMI
T4 sequence (P47929 whole entry): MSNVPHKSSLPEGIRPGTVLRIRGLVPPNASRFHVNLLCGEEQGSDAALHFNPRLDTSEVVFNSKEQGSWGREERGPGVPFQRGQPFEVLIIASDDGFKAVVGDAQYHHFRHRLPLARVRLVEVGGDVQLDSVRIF
T8 sequence (O00182 227-355 limits assumed): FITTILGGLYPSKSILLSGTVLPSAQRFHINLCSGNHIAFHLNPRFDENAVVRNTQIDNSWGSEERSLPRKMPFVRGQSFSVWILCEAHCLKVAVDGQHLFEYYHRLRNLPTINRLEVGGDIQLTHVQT

## Cn1c(CO[C@@H]2C=CO[C@H](CO)[C@@H]2O)nc2ccc(C(=O)O)cc21 [6a]
[1]
  Kd: 1700 ± 150 µM
[2]
  cell viability (MTS), MDA-MB-231: None of the compounds decreased the viability; also recorded: no effect on the viability
[3]; mean ± SEM of n = 4–8
  Kd: 48 ± 4 µM
[3]; ratio of Kd values
  selectivity for galectin-8N over galectin-1: 27 fold
  selectivity for galectin-8N over galectin-3: 15 fold
galectin-2
  Kd: 1400 ± 24 µM
galectin-7
  Kd: > 1500 µM
[4]
  Kd: 1400 ± 57 µM
[5]
  direct cytotoxicity (MTS), PBMCs: lack of direct cytotoxicity
K562 cancer cell line
  cell viability (MTS), K562: None of the compounds decreased the viability
[6]
  Kd: 1400 ± 30 µM
[7]
  Kd: 4000 ± 500 µM
[8]
  Kd: > 1500 µM
galectin-3
  Kd: 690 ± 30 µM
